Where “and” joins values, the source holds several entries; their conditions need not be identical. Equal entries are not always repeated. Inconclusive results and toxic doses are left out. The calls were made as follows: active = survival T/C of 150% or more; inactive = T/C below 125% in these data. Square brackets hold non-standard residues; d marks the D form. Peptide text beside a SMILES is read from it. ξ: configuration not given here. ξNva = CCCC(N)C(=O)O
Tested on: P388 leukemia ip, CD2F1 mice, survival T/C
Assay: NCI In Vivo Anticancer Drug Screen. Data for tumor model P388 Leukemia (intraperitoneal) in CD2F1 (CDF1) mice
Conditions: endpoint: median survival time, higher = longer survival
In short: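 Mice carrying the transplanted tumor received test compound or vehicle. Survival was recorded in each group, and the value is the treated-group measurement divided by that of the vehicle-treated control group.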

[1] = dose: 6.25 mg/kg/injection, schedule: Q01DX009 (ip), vehicle: Klucel (hydroxypropylcellulose) (HPC)
[2] = dose: 12.5 mg/kg/injection, schedule: Q01DX009 (ip), vehicle: Klucel (hydroxypropylcellulose) (HPC)
[3] = dose: 25.0 mg/kg/injection, schedule: Q01DX009 (ip), vehicle: Klucel (hydroxypropylcellulose) (HPC)
[4] = dose: 60.0 mg/kg/injection, schedule: Q01DX005 (ip), vehicle: saline with Tween-80
[5] = dose: 120.0 mg/kg/injection, schedule: Q01DX005 (ip), vehicle: saline with Tween-80
[6] = dose: 240.0 mg/kg/injection, schedule: Q01DX005 (ip), vehicle: saline with Tween-80
[7] = dose: 50.0 mg/kg/injection, schedule: Q01DX005 (ip), vehicle: Klucel (hydroxypropylcellulose) (HPC)
[8] = dose: 100.0 mg/kg/injection, schedule: Q01DX005 (ip), vehicle: Klucel (hydroxypropylcellulose) (HPC)
[9] = dose: 7.5 mg/kg/injection, schedule: Q01DX005 (ip), vehicle: saline with Tween-80
[10] = dose: 60.0 mg/kg/injection, schedule: Q01DX005 (ip), vehicle: saline
[11] = dose: 120.0 mg/kg/injection, schedule: Q01DX005 (ip), vehicle: saline
[12] = dose: 100.0 mg/kg/injection, schedule: Q01DX001 (ip), vehicle: saline with Tween-80
[13] = dose: 200.0 mg/kg/injection, schedule: Q01DX001 (ip), vehicle: saline with Tween-80
[14] = dose: 400.0 mg/kg/injection, schedule: Q01DX001 (ip), vehicle: saline with Tween-80

Measured: T/C

CC1=C2C(=CO[C@H](C)[C@H]2C)C(=O)C(C(=O)O)=C1O
inactive: [1] 112 % of control | dose: 6.25 mg/kg/injection, schedule: Q01DX009 (ip), vehicle: saline 117 % of control | [2] 120 % of control | dose: 12.5 mg/kg/injection, schedule: Q01DX009 (ip), vehicle: saline 115 % of control | [3] 124 % of control

O=C1c2ccccc2C(=O)N1C1CC(=O)n2c1nc1ccccc12 (stereo unspecified)
inactive: [4] 101 % of control | [5] 95 % of control | [6] 95 % of control

CCOC(=O)C1C/C(=N\OS(=O)(=O)c2ccc(C)cc2)c2ccc(OC)c(OC)c2C1 (stereo unspecified)
inactive: dose: 25.0 mg/kg/injection, schedule: Q01DX009 (ip), vehicle: other 92 % of control | dose: 50.0 mg/kg/injection, schedule: Q01DX009 (ip), vehicle: other 89 % of control | dose: 100.0 mg/kg/injection, schedule: Q01DX009 (ip), vehicle: other 87 % of control | dose: 400.0 mg/kg/injection, schedule: Q01DX009 (ip), vehicle: other 97 % of control

O=[N+]([O-])CC(c1ccccc1)C(C[N+](=O)[O-])c1ccccc1 (stereo unspecified)
inactive: dose: 6.25 mg/kg/injection, schedule: Q01DX005 (ip), vehicle: saline with Tween-80 100 % of control | dose: 12.5 mg/kg/injection, schedule: Q01DX005 (ip), vehicle: saline with Tween-80 87 % of control | dose: 25.0 mg/kg/injection, schedule: Q01DX005 (ip), vehicle: saline with Tween-80 95 % of control | dose: 50.0 mg/kg/injection, schedule: Q01DX005 (ip), vehicle: saline with Tween-80 91 % of control | dose: 100.0 mg/kg/injection, schedule: Q01DX005 (ip), vehicle: saline with Tween-80 91 % of control and 86 % of control

COc1ccc2c(C)cc(N/N=C/c3ccccn3)nc2c1
inactive: dose: 25.0 mg/kg/injection, schedule: Q01DX005 (ip), vehicle: Klucel (hydroxypropylcellulose) (HPC) 102 % of control and 112 % of control | [7] 104 % of control and 118 % of control and 93 % of control | [8] 104 % of control and 112 % of control

CC(=O)Nc1nc(CCl)cs1
inactive: [3] 100 % of control | dose: 50.0 mg/kg/injection, schedule: Q01DX009 (ip), vehicle: Klucel (hydroxypropylcellulose) (HPC) 102 % of control | dose: 100.0 mg/kg/injection, schedule: Q01DX009 (ip), vehicle: Klucel (hydroxypropylcellulose) (HPC) 103 % of control | dose: 200.0 mg/kg/injection, schedule: Q01DX009 (ip), vehicle: Klucel (hydroxypropylcellulose) (HPC) 110 % of control

CCOC(=O)/C=C/c1c[nH]c(=O)[nH]c1=O
inactive: dose: 12.5 mg/kg/injection, schedule: Q01DX009 (ip), vehicle: distilled water + Tween-80 100 % of control | dose: 25.0 mg/kg/injection, schedule: Q01DX009 (ip), vehicle: distilled water + Tween-80 96 % of control | dose: 50.0 mg/kg/injection, schedule: Q01DX009 (ip), vehicle: distilled water + Tween-80 92 % of control | dose: 100.0 mg/kg/injection, schedule: Q01DX009 (ip), vehicle: distilled water + Tween-80 88 % of control

CSC(=S)n1nc(-c2cccs2)c(N=Nc2ccccc2)c1C(F)(F)F
inactive: [9] 102 % of control | dose: 15.0 mg/kg/injection, schedule: Q01DX005 (ip), vehicle: saline with Tween-80 112 % of control | dose: 30.0 mg/kg/injection, schedule: Q01DX005 (ip), vehicle: saline with Tween-80 112 % of control

COc1ccccc1NC(=O)C1=C(C)NC(C)=C(C(=O)Nc2ccccc2OC)C1c1cccc([N+](=O)[O-])c1
inactive: dose: 60.0 mg/kg/injection, schedule: Q01DX005 (ip), vehicle: Klucel (hydroxypropylcellulose) (HPC) 92 % of control | dose: 120.0 mg/kg/injection, schedule: Q01DX005 (ip), vehicle: Klucel (hydroxypropylcellulose) (HPC) 88 % of control

CC1=C(O)c2ccccc2C(=O)C1=O
inactive: dose: 12.5 mg/kg/injection, schedule: Q01DX009 (ip), vehicle: saline with Tween-80 101 % of control | dose: 25.0 mg/kg/injection, schedule: Q01DX009 (ip), vehicle: saline with Tween-80 113 % of control and 90 % of control | dose: 50.0 mg/kg/injection, schedule: Q01DX009 (ip), vehicle: saline with Tween-80 105 % of control and 116 % of control | dose: 100.0 mg/kg/injection, schedule: Q01DX009 (ip), vehicle: saline with Tween-80 92 % of control | dose: 200.0 mg/kg/injection, schedule: Q01DX009 (ip), vehicle: saline with Tween-80 90 % of control

Clc1ccc(C[Se][Se]Cc2ccc(Cl)cc2)cc1
inactive: [1] 109 % of control | [2] 108 % of control | [3] 101 % of control

N#CC[N+]1(Cc2ccccn2)CCCC1
inactive: [10] 101 % of control | [11] 108 % of control

COc1cc2c(cc1OC)C(C#N)N(C(=O)c1ccccc1)C=C2 (stereo unspecified)
inactive: dose: 0.1 mg/kg/injection, schedule: Q01DX009 (ip), vehicle: water 98 % of control | dose: 0.19 mg/kg/injection, schedule: Q01DX009 (ip), vehicle: water 100 % of control | dose: 0.38 mg/kg/injection, schedule: Q01DX009 (ip), vehicle: water 98 % of control | dose: 0.75 mg/kg/injection, schedule: Q01DX009 (ip), vehicle: water 100 % of control | dose: 1.5 mg/kg/injection, schedule: Q01DX009 (ip), vehicle: water 100 % of control

CCCC(NC(=O)CNC(=O)CN)C(=O)O (stereo not drawn) (H-Gly-Gly-[ξNva]-OH)
inactive: [10] 98 % of control | [11] 106 % of control | dose: 240.0 mg/kg/injection, schedule: Q01DX005 (ip), vehicle: saline 106 % of control

COc1nc(N)c2ncn(C3CCCO3)c2n1 (stereo unspecified)
inactive: dose: 12.5 mg/kg/injection, schedule: Q01DX001 (ip), vehicle: Klucel (hydroxypropylcellulose) (HPC) 100 % of control | dose: 25.0 mg/kg/injection, schedule: Q01DX001 (ip), vehicle: Klucel (hydroxypropylcellulose) (HPC) 106 % of control

O=C(O)c1nn(Cc2ccc(Br)cc2Br)c2ccccc12
inactive: [12] 114 % of control | [13] 104 % of control | [14] 114 % of control

CCOC(=O)Nc1cc2c(c(N)n1)N=C(c1ccc(C)cc1C)CN2
inactive: dose: 5.0 mg/kg/injection, schedule: Q01DX005 (ip), vehicle: saline with Tween-80 109 % of control | dose: 10.0 mg/kg/injection, schedule: Q01DX005 (ip), vehicle: saline with Tween-80 115 % of control | dose: 20.0 mg/kg/injection, schedule: Q01DX005 (ip), vehicle: saline with Tween-80 123 % of control

CN=C(N)N/N=C(\c1ccccc1)c1ccc(Br)cc1
inactive: dose: 3.12 mg/kg/injection, schedule: Q04DX002 (ip), vehicle: saline with Tween-80 101 % of control | dose: 6.25 mg/kg/injection, schedule: Q04DX002 (ip), vehicle: saline with Tween-80 108 % of control and 96 % of control

Cc1csc(NN=O)n1
inactive: dose: 1.56 mg/kg/injection, schedule: Q01DX009 (ip), vehicle: water 98 % of control | dose: 3.12 mg/kg/injection, schedule: Q01DX009 (ip), vehicle: water 104 % of control and 95 % of control | dose: 6.25 mg/kg/injection, schedule: Q01DX009 (ip), vehicle: water 105 % of control and 96 % of control | dose: 12.5 mg/kg/injection, schedule: Q01DX009 (ip), vehicle: water 100 % of control and 102 % of control | dose: 25.0 mg/kg/injection, schedule: Q01DX009 (ip), vehicle: water 99 % of control and 102 % of control | dose: 50.0 mg/kg/injection, schedule: Q01DX009 (ip), vehicle: water 111 % of control

CN1CC[CH2][Sn]([Cl])([Cl])[CH2]CC1
inactive: dose: 3.75 mg/kg/injection, schedule: Q01DX005 (ip), vehicle: saline with Tween-80 114 % of control | [9] 105 % of control

Nc1ccc(C2=Cc3ccc(N)cc3S2(=O)=O)cc1
inactive: dose: 100.0 mg/kg/injection, schedule: Q04DX002 (ip), vehicle: saline 99 % of control | dose: 200.0 mg/kg/injection, schedule: Q04DX002 (ip), vehicle: saline 99 % of control | dose: 400.0 mg/kg/injection, schedule: Q04DX002 (ip), vehicle: saline 101 % of control

CCc1c(C#N)c(N)c2c(N)c(C(=O)c3ccccc3)sc2c1C
inactive: [7] 89 % of control | [8] 101 % of control | dose: 200.0 mg/kg/injection, schedule: Q01DX005 (ip), vehicle: Klucel (hydroxypropylcellulose) (HPC) 95 % of control

CCCCCCCCCCCCCCN1CCCN(CCCCCCCCCCCCCC)CC1
inactive: [4] 92 % of control | [5] 94 % of control | [6] 88 % of control

CCOC(=O)C1=C(N)CCC2(C1)c1ccccc1-c1ccccc12
inactive: [12] 97 % of control | [13] 103 % of control | [14] 93 % of control
